Results on one compound are retold here after patent US7312322B1, “Genetic sequences encoding steroid and juvenile hormone receptor polypeptides and insecticidal modalities therefor” (priority 1998, dated 2007).

Assay [1] has as its target T1, EcR polypeptide subunit of the D. melanogaster ecdysone receptor (Drosophila melanogaster, UniProt P34021).
T1 construct: expressed in transfected cells; host or cells: CHO cells
T1 sequence (P34021 1-878): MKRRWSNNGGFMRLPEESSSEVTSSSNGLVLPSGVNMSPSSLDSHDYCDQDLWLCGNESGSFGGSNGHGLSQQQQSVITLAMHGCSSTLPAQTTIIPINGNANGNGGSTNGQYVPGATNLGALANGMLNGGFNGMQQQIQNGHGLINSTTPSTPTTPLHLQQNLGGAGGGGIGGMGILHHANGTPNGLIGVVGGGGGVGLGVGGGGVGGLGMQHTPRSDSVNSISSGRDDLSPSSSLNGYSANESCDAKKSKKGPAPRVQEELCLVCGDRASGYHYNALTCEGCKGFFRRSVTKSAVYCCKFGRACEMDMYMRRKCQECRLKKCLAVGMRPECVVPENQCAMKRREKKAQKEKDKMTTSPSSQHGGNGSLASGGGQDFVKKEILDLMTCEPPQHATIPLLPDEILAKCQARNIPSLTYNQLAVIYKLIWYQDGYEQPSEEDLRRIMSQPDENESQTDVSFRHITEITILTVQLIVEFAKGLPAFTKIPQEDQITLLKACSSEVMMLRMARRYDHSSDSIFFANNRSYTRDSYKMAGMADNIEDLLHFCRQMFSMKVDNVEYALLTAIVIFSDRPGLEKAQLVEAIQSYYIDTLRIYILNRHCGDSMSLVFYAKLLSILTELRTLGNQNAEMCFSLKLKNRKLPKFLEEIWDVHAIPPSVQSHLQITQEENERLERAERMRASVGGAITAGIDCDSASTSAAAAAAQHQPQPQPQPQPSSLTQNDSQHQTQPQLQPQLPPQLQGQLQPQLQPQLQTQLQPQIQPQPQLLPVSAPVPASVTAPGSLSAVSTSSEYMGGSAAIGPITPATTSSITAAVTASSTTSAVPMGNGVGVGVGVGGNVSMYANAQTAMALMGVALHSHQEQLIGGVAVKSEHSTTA
Put plainly: CHO cell co-transfection CAT reporter assay, pSV40-EcR with p(EcRE)7-CAT. The class given is cell-based. The note with it: for Fold-induction of expression: 30° C., PNA 20 μM, CHO cells. The procedure:
Chinese hamster ovary (CHO) cells were maintained in 50% (v/v) Dubbecco's modified Eagle's medium (DMEM) and 50% (v/v) Hamm F12 nutrient mixture (GIBCO) supplemented with 10% (v/v) foetal bovine serum. Transfection was carried out by the DNA-calcium phosphate co-precipitation method (Ausubel et al, 1992). One day before transfection with the plasmids described in Examples 1 and/or 2, or other expression plasmids, CHO cells were plated out at 5-8×10^5 cells per 6 cm diameter culture dish in the above DMEM/F12 medium. Three hours before the addition of the DNA-calcium phosphate co-precipitate, the cells were washed with phosphate buffered saline (PBS; Sambrook et al., 1989) and cultured in fresh DMEM plus 10% (v/v) foetal bovine serum. The cells were incubated in the presence of the co-precipitate for eighteen hours before excess DNA was removed by washing with PBS. The cells were then cultured for another day in DMEM/F12 supplemented with 10% (v/v) foetal bovine serum with or without added ponasterone A (PNA), before harvesting. Cells were washed with PBS, harvested by mechanical scraping in 0.25 M Tris-HCl (pH 7.8), and disrupted by three freeze-thaw cycles.
All transfections included, in addition to expression and reporter plasmids, a β-galactosidase-expressing plasmid designated pPgK-LacZ (McBurney et al, 1991), which served as an internal control for the efficiency of transfection, and pUC18 DNA in an amount sufficient to produce 10 μg total DNA per culture dish.
The chloramphenicol acetyltransferase (CAT) and β-galactosidase activities encoded by the reporter genes present in the reporter plasmids were assayed as described in Sambrook et al, (1989).
To determine whether the D. melanogaster ecdysone receptor polypeptide is stable at physiological temperatures above about 30° C., CHO cells were transfected as described in Example 3, with the plasmid pSV40-EcR and the reporter plasmid p(EcRE)7-CAT in the presence of PNA, at 30° C. and 37° C.
Briefly, CHO cells were plated out at 37° C. sixteen to twenty hours before transfection. After washing away the DNA, the cells were cultured for two hours in fresh medium with or without hormone and the dishes divided into duplicate sets. One set was cultured for another day at 37° C. before harvesting for CAT and β-galactosidase assays. The other set was cultured for three days at 30° C. before assaying enzyme activities. Results indicated a reduction in the fold-induction of gene expression regulated by the D. melanogaster ecdysone receptor polypeptide at 37° C., compared to the fold-induction at 30° C., as shown in Table 1.

Assay [2] concerns the target T2, linker and ligand-binding regions of the L. cuprina EcR polypeptide and partner protein (USP polypeptide) (Lucilia cuprina, UniProt O18531).
T2 construct: made in house; host or cells: recombinant baculovirus in insect Sf9 and Sf21 cells (extracts)
T2 sequence (O18531 366-757): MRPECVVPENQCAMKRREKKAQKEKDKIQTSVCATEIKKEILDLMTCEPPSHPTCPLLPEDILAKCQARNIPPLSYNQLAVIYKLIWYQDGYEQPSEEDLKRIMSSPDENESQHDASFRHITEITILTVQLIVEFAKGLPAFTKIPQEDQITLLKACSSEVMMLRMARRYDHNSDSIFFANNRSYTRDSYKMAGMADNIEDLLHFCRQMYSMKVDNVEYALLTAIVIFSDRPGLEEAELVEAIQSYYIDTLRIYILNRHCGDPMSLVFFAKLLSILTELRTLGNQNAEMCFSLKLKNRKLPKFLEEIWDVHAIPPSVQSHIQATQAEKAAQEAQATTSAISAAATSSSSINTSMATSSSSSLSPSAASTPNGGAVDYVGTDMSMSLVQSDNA
The assay can be described thus: [3H]ponasterone A binding assay in Sf9 and Sf21 cells infected by recombinant baculovirus (modified method of Yund et al). The conditions noted are these: compared to the ecdysone holoreceptor in L. cuprina embryos; no specific binding with control virus (FIG. 3).
Description: Control cells contained baculovirus expressing β-galactosidase and CAT only.
The segment of pLcEcR.USP.DUAL which encodes the tagged linker and ligand-binding regions of the EcR polypeptide and partner protein (USP polypeptide) sequences, placed operably under the control of polyhedrin and p10 promoters, respectively, was recombined into a baculovirus genome, by employing the Tn7 transposition system (Luckow et al, (1993). The polypeptide products were then co-expressed in insect Sf21 and Sf9 cells, where they associated into a functional complex.

“And” between values parts separate entries of the source, which are not always exact repeats. Equal entries are not always repeated.

Take `CC(C)CC[C@@H](O)[C@](C)(O)[C@H]1CC[C@@]2(O)C3=CC(=O)[C@@H]4C[C@@H](O)[C@@H](O)C[C@]4(C)[C@H]3CC[C@]12C` [PNA, ponasterone A]: the Fold-induction of expression in assay [1] (pSV40-EcR 0.1 μg/dish) is 39X and 25X; in assay [1] (pSV40-EcR 0.5 μg/dish), 26X and 33X; in assay [1] (pSV40-EcR 2.5 μg/dish), 35X and 54X. Further, the “induction of CAT activity” value in assay [1] (CHO cells co-transfected with p(EcRE)7-CAT and pSV40-EcR, in the presence of PNA) is 50 units of activity. Further, the “binding of labelled ligand in cells infected by the recombinant baculovirus” value in assay [2] was “highly-significant increase in the binding”.
